Source: PubChem BioAssay AID493086 (The Scripps Research Institute Molecular Screening Center, 2011)
Calls of active or inactive are those of the source.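 The calls were made as follows: active = IC50 at or below 10 µM; inactive = IC50 above 10 µM.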

target: Induced myeloid leukemia cell differentiation protein Mcl-1 (Homo sapiens) (UniProt Q07820); experiment: blockers of MCL1–BIM BH3 interaction – biochemical, fluorescence polarization, assay provider data, powder samples, late-stage follow-up (AID 493086); settings: GST-MCL1 / FITC-BIM-BH3 fluorescence polarization
Sequence (Q07820 whole entry, looked up): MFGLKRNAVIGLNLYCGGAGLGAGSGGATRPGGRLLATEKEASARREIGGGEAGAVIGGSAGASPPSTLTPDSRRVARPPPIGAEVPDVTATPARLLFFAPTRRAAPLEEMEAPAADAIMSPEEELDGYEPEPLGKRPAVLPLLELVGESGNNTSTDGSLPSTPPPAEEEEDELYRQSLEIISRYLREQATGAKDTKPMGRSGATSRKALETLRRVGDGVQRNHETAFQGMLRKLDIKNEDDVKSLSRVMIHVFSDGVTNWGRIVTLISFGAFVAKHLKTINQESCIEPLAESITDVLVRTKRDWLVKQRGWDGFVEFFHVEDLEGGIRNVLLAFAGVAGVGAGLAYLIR

IC50 | SMILES
> 20 µM (inactive) | COc1ccc(NC(=O)c2cc(-c3ccc(C)o3)nc3ccccc23)c(OC)c1
> 20 µM (inactive) | COc1ccc(NC(=O)c2cc(-c3ccc(C)o3)nc3ccccc23)cc1OC
> 20 µM (inactive) | COc1ccc(NC(=O)CN(C)C(=O)c2cc(-c3ccc(C)o3)nc3ccccc23)cc1
4.4 µM | O=C(NC1CC1)c1cc(-c2ccco2)nc2ccccc12
> 20 µM (inactive) | CCCCCCNC(=O)c1cc(-c2ccco2)nc2ccccc12
> 20 µM (inactive) | COc1ccccc1NC(=O)c1cc(-c2ccc(C)o2)nc2ccccc12
inactive | Cc1ccc(-c2cc(C(=O)N3CCN(c4ncccn4)CC3)c3cc(Br)ccc3n2)o1
> 20 µM (inactive) | CC(=O)c1cccc(NC(=O)c2cc(-c3ccco3)nc3ccccc23)c1
> 20 µM (inactive) | CC(=O)N1CCN(C(=O)c2cc(-c3ccc(C)o3)nc3ccccc23)CC1
inactive | O=C(Nc1nccs1)c1cc(-c2ccco2)nc2ccccc12
inactive | O=C(Nc1ccccc1F)c1cc(-c2ccco2)nc2ccccc12
> 20 µM (inactive) | Cc1ccc(-c2cc(C(=O)N3CCN(c4ccc(F)cc4)CC3)c3ccccc3n2)o1
inactive | Cc1ccc(NC(=O)c2cc(-c3ccc(C)o3)nc3ccccc23)nc1
> 20 µM (inactive) | Cc1ccc(-c2cc(C(=O)Nc3nccs3)c3ccccc3n2)o1
> 20 µM (inactive) | Cc1ccc(NC(=O)c2cc(-c3ccc(C)o3)nc3ccccc23)cc1
> 20 µM (inactive) | O=C(Nc1cccc(F)c1)c1cc(-c2ccco2)nc2ccccc12
> 20 µM (inactive) | Cc1ccc(-c2cc(C(=O)NCC(c3ccccc3)N(C)C)c3ccccc3n2)o1 (centres undefined)
> 20 µM (inactive) | CCc1nnc(NC(=O)c2cc(-c3ccc(C)o3)nc3ccccc23)s1
> 20 µM (inactive) | Cc1ccc(-c2cc(C(=O)Nc3ccccc3C)c3ccccc3n2)o1

IC50 | SMILES
inactive | O=C(NCC1CCCO1)c1cc(-c2ccco2)nc2ccccc12 (centres undefined)
inactive | O=C(NC1CCC(O)CC1)c1cc(-c2ccco2)nc2ccccc12 (centres undefined)
inactive | O=C(Nc1ccccc1N1CCOCC1)c1cc(-c2ccco2)nc2ccccc12
inactive | CCc1nnc(NC(=O)c2cc(-c3ccco3)nc3ccccc23)s1
> 20 µM (inactive) | COc1ccc(NC(=O)c2cc(-c3ccco3)nc3ccccc23)cc1
> 20 µM (inactive) | Cc1ccc(-c2cc(C(=O)N3CCN(c4ccccc4O)CC3)c3ccccc3n2)o1
> 20 µM (inactive) | COc1cccc(NC(=O)CN(C)C(=O)c2cc(-c3ccc(C)o3)nc3ccccc23)c1
inactive | Cc1ccc(NC(=O)c2cc(-c3ccco3)nc3ccccc23)cc1S(=O)(=O)N1CCOCC1
6.7 µM | CCN1CCN(C(=O)c2cc(-c3ccco3)nc3ccccc23)CC1
inactive | COc1ccc(NC(=O)c2cc(-c3ccco3)nc3ccccc23)cc1S(=O)(=O)N1CCOCC1
> 20 µM (inactive) | CC(C)CCNC(=O)c1cc(-c2ccco2)nc2ccccc12
> 20 µM (inactive) | O=C(NCCCN1CCOCC1)c1cc(-c2ccco2)nc2ccccc12
> 20 µM (inactive) | COc1cccc(NC(=O)c2cc(-c3ccco3)nc3ccccc23)c1
> 20 µM (inactive) | Cc1ccc(-c2cc(C(=O)N(C)CC(=O)Nc3ccccc3Br)c3ccccc3n2)o1
> 20 µM (inactive) | Cc1ccc(-c2cc(C(=O)NCCN3CCOCC3)c3ccccc3n2)o1
> 20 µM (inactive) | CCOc1cc(N2CCOCC2)c(OCC)cc1NC(=O)c1cc(-c2ccco2)nc2ccccc12
inactive | Cc1ccc(-c2cc(C(=O)Nc3cccnc3)c3ccccc3n2)o1
> 20 µM (inactive) | Cc1ccc(-c2cc(C(=O)N3CCOCC3)c3ccccc3n2)o1

Second part, the molecule before the results:

SMILES | IC50
CCOC(=O)c1cc(-c2ccco2)nc2c1c(C)nn2-c1cccc(Cl)c1 | > 20 µM (inactive)
COCCCN(C(=O)c1cc(-c2ccco2)nc2ccccc12)c1c(N)n(Cc2ccccc2)c(=O)[nH]c1=O | > 20 µM (inactive)
COc1ccc(Cc2nnc(NC(=O)Cc3cccnc3)s2)cc1OC | > 20 µM (inactive)
COc1ccc(Cc2nnc(NC(=O)Cc3cccs3)s2)cc1OC | > 20 µM (inactive)
O=C(Nc1cccc(S(=O)(=O)NC2=NCCCCC2)c1)c1cc(-c2ccco2)nc2ccccc12 | > 20 µM (inactive)
COc1ccc(CCNC(=O)c2cc(-c3ccco3)nc3ccccc23)cc1 | > 20 µM (inactive)
COc1ccc(Cc2nnc(NC(=O)Cc3csc4ccccc34)s2)cc1OC | > 20 µM (inactive)
CCN(CC)CCNC(=O)c1cc(-c2ccco2)nc2ccccc12 | > 20 µM (inactive)
O=C(Nc1cccc(S(=O)(=O)NC2=NCCC2)c1)c1cc(-c2ccco2)nc2ccccc12 | inactive
CCCC(=O)Nc1nnc(Cc2ccccc2)s1 | > 20 µM (inactive)
COc1ccc(Cc2nnc(NC(=O)Cc3ccc(Oc4ccccc4)cc3)s2)cc1OC | > 20 µM (inactive)
COc1ccc(CC(=O)Nc2nnc(Cc3ccc(OC)c(OC)c3)s2)cc1 | > 20 µM (inactive)
CCCCn1c(N)c(N(CCOC)C(=O)c2cc(-c3ccco3)nc3ccccc23)c(=O)[nH]c1=O | > 20 µM (inactive)
COc1ccc(Cc2nnc(NC(=O)Cc3ccc(-c4ccccc4)cc3)s2)cc1OC | > 20 µM (inactive)
CCCCn1c(N)c(N(CCC(C)C)C(=O)c2cc(-c3ccco3)nc3ccccc23)c(=O)[nH]c1=O | > 20 µM (inactive)
O=C(Nc1ccc(F)cc1F)c1cc(-c2ccco2)nc2ccccc12 | > 20 µM (inactive)

SMILES | IC50
Cc1ccc(S(=O)(=O)N(C)C)cc1NC(=O)c1cc(-c2ccco2)nc2ccccc12 | > 20 µM (inactive)
O=C(Nc1nc2ccccc2s1)c1cc(-c2ccco2)nc2ccccc12 | > 20 µM (inactive)
CN(CCOc1ccc(Cl)cc1)C(=O)c1cc(-c2ccco2)nc2ccccc12 | > 20 µM (inactive)
CCCCN(C(=O)c1cc(-c2ccco2)nc2ccccc12)c1c(N)n(CCCC)c(=O)[nH]c1=O | > 20 µM (inactive)
COc1ccc(Cc2nnc(NC(=O)Cc3sc(=S)[nH]c3C)s2)cc1OC | > 20 µM (inactive)
COCCN(C(=O)c1cc(-c2ccco2)nc2ccccc12)c1c(N)n(Cc2ccccc2)c(=O)[nH]c1=O | 3.4 µM
O=C(c1cc(-c2ccco2)nc2ccccc12)N(Cc1nnc(-c2ccc(Cl)cc2)o1)C1CC1 | > 20 µM (inactive)
COc1ccc(Cc2nnc(NC(=O)Cc3ccccc3C)s2)cc1OC | > 20 µM (inactive)
CCCCN(C(=O)c1cc(-c2ccco2)nc2ccccc12)c1c(N)n(CCC)c(=O)[nH]c1=O | > 20 µM (inactive)
COc1ccc(Cc2nnc(NC(=O)C(=O)c3ccco3)s2)cc1OC | > 20 µM (inactive)
COc1ccc(Cc2nnc(NC(=O)CCc3cccs3)s2)cc1OC | > 20 µM (inactive)
CCCCn1c(N)c(N(CC(C)C)C(=O)c2cc(-c3ccco3)nc3ccccc23)c(=O)[nH]c1=O | > 20 µM (inactive)
COc1ccc(Cc2nnc(NC(=O)Cc3ccc4ccccc4c3)s2)cc1OC | > 20 µM (inactive)
COc1ccc(Cc2nnc(NC(=O)Cc3ccsc3)s2)cc1OC | > 20 µM (inactive)
COc1ccc(Cc2nnc(NC(=O)C(F)c3ccccc3)s2)cc1OC (centres undefined) | > 20 µM (inactive)
O=C(CCn1nnc2ccccc21)Nc1nnc(Cc2ccccc2)s1 | > 20 µM (inactive)
